HELM strings list units from the 5' end as sugar, base in round brackets, then linkage (d deoxyribose, r ribose, m 2'-O-methyl, p phosphodiester). Strings are as the collection lists them, not checked against the first reports. ss, as = sense and antisense strand; [lna] = locked nucleic acid (LNA); [fl2r] = 2'-fluoro
settings: siRNA
Further: test system not given here.

In order of falling target mRNA knockdown:
1. RNA1{r(C)p.r(U)p.r(U)p.r(A)p.r(C)p.r(G)p.r(C)p.r(U)p.r(G)p.r(A)p.r(G)p.r(U)p.r(A)p.r(C)p.r(U)p.r(U)p.r(C)p.r(G)p.r(A)p.r(T)p.r(T)}|RNA2{r(U)p.r(C)p.r(G)p.r(A)p.r(A)p.r(G)p.r(U)p.r(A)p.r(C)p.r(U)p.r(C)p.r(A)p.r(G)p.r(C)p.r(G)p.r(U)p.[lna](A)p.r(A)p.r(G)p.r(T)p.r(T)}$$$RNA1{StrandType:ss}|RNA2{StrandType:as}$  93%
2. RNA1{r(C)p.r(U)p.r(U)p.r(A)p.r(C)p.r(G)p.r(C)p.r(U)p.r(G)p.r(A)p.r(G)p.r(U)p.r(A)p.r(C)p.r(U)p.r(U)p.r(C)p.r(G)p.r(A)p.r(T)p.r(T)}|RNA2{r(U)p.r(C)p.r(G)p.r(A)p.r(A)p.r(G)p.r(U)p.r(A)p.r(C)p.r(U)p.r(C)p.r(A)p.r(G)p.r(C)p.r(G)p.r(U)p.r(A)p.r(A)p.r(G)p.[lna](T)p.[lna](T)}$$$RNA1{StrandType:ss}|RNA2{StrandType:as}$  93%
3. RNA1{r(C)p.r(U)p.r(U)p.r(A)p.r(C)p.r(G)p.r(C)p.r(U)p.r(G)p.r(A)p.r(G)p.r(U)p.r(A)p.r(C)p.r(U)p.r(U)p.r(C)p.r(G)p.r(A)p.r(T)p.r(T)}|RNA2{r(U)p.r(C)p.r(G)p.r(A)p.r(A)p.r(G)p.r(U)p.r(A)p.r(C)p.r(U)p.r(C)p.r(A)p.r(G)p.r(C)p.r(G)p.r(U)p.r(A)p.[lna](A)p.r(G)p.r(T)p.r(T)}$$$RNA1{StrandType:ss}|RNA2{StrandType:as}$  92%
4. RNA1{r(C)p.r(U)p.r(U)p.r(A)p.r(C)p.r(G)p.r(C)p.r(U)p.r(G)p.r(A)p.r(G)p.r(U)p.r(A)p.r(C)p.r(U)p.r(U)p.r(C)p.r(G)p.r(A)p.r(T)p.r(T)}|RNA2{r(U)p.r(C)p.r(G)p.r(A)p.r(A)p.r(G)p.r(U)p.r(A)p.r(C)p.r(U)p.r(C)p.r(A)p.r(G)p.r(C)p.r(G)p.r(U)p.r(A)p.r(A)p.[lna](G)p.r(T)p.r(T)}$$$RNA1{StrandType:ss}|RNA2{StrandType:as}$  88%
5. RNA1{r(C)p.r(U)p.r(U)p.r(A)p.r(C)p.r(G)p.r(C)p.r(U)p.r(G)p.r(A)p.r(G)p.r(U)p.r(A)p.r(C)p.r(U)p.r(U)p.r(C)p.r(G)p.r(A)p.r(T)p.r(T)}|RNA2{r(U)p.r(C)p.r(G)p.r(A)p.r(A)p.r(G)p.r(U)p.r(A)p.r(C)p.r(U)p.r(C)p.r(A)p.r(G)p.r(C)p.r(G)p.[lna](U)p.r(A)p.r(A)p.r(G)p.r(T)p.r(T)}$$$RNA1{StrandType:ss}|RNA2{StrandType:as}$  81%
6. RNA1{r(G)p.[fl2r](A)p.r(A)p.r(A)p.[fl2r](C)p.[fl2r](U)p.r(G)p.r(G)p.[fl2r](U)p.[fl2r](A)p.[fl2r](C)p.[fl2r](U)p.[fl2r](U)p.[fl2r](U)p.[fl2r](C)p.[fl2r](C)p.[fl2r](C)p.[fl2r](C)p.[fl2r](C)p.r(T)p.r(T)}|RNA2{r(G)p.r(G)p.r(G)p.r(G)p.r(G)p.r(A)p.r(A)p.r(A)p.r(G)p.r(U)p.r(A)p.r(C)p.r(C)p.r(A)p.r(G)p.r(U)p.r(U)p.r(U)p.r(C)p.r(T)p.r(T)}$$$RNA1{StrandType:ss}|RNA2{StrandType:as}$  60%
7. RNA1{r(C)p.r(U)p.r(U)p.r(C)p.r(U)p.r(U)p.r(C)p.r(G)p.r(U)p.r(C)p.r(G)p.r(A)p.r(G)p.r(A)p.r(C)p.r(C)p.r(A)p.r(U)p.r(G)p.d(T)p.d(T)}|RNA2{r(C)p.r(A)p.r(U)p.r(G)p.r(G)p.r(U)p.r(C)p.r(U)p.r(C)p.r(G)p.r(A)p.r(C)p.r(G)p.r(A)p.r(A)p.r(G)p.r(A)p.r(A)p.r(G)p.d(T)p.d(T)}$$$RNA1{StrandType:ss}|RNA2{StrandType:as}$  45%
